Test results taken from ChEMBL document CHEMBL5360537, “From lead to clinic: A review of the structural design of P2X7R antagonists” (Eur J Med Chem, 2023).

Experiments:
P2X purinoceptor 7 [1] = biological target: T1, P2X purinoceptor 7 (Homo sapiens, UniProt Q99572); experiment: Antagonist activity at human P2X7 receptor expressed in HEK293 by fluorescence plate reader analysis; format: cell-based
T1 sequence (Q99572 whole entry): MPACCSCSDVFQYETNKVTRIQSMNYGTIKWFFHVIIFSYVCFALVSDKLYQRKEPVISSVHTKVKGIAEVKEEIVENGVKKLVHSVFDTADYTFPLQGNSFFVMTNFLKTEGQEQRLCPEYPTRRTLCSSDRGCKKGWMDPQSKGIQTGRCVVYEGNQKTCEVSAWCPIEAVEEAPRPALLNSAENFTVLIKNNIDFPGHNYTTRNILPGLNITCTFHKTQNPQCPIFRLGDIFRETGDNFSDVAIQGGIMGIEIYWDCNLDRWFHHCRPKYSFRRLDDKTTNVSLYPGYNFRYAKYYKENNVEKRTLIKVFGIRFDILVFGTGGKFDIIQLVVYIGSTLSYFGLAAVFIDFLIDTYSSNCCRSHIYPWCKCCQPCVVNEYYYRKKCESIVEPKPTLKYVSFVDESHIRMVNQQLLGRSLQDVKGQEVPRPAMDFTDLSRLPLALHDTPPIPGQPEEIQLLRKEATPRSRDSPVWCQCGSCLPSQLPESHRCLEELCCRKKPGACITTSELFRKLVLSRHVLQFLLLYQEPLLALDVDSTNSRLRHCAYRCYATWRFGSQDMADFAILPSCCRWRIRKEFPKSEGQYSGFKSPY

P2X purinoceptor 7 [2] = biological target: T1, P2X purinoceptor 7; experiment: Inhibition of human P2X7 receptor transfected in HEK293 cells by calcium influx assay; format: cell-based
P2X purinoceptor 7 [3] = biological target: T1, P2X purinoceptor 7; experiment: Antagonist activity at human P2X7 receptor
P2X purinoceptor 7 [4] = biological target: T1, P2X purinoceptor 7; experiment: Antagonist activity at human P2X7 receptor by calcium flux assay
P2X purinoceptor 7 [5] = biological target: T2, P2X purinoceptor 7 (Rattus norvegicus, UniProt Q64663); experiment: Antagonist activity at rat P2X7 receptor by calcium flux assay
T2 sequence (Q64663 whole entry): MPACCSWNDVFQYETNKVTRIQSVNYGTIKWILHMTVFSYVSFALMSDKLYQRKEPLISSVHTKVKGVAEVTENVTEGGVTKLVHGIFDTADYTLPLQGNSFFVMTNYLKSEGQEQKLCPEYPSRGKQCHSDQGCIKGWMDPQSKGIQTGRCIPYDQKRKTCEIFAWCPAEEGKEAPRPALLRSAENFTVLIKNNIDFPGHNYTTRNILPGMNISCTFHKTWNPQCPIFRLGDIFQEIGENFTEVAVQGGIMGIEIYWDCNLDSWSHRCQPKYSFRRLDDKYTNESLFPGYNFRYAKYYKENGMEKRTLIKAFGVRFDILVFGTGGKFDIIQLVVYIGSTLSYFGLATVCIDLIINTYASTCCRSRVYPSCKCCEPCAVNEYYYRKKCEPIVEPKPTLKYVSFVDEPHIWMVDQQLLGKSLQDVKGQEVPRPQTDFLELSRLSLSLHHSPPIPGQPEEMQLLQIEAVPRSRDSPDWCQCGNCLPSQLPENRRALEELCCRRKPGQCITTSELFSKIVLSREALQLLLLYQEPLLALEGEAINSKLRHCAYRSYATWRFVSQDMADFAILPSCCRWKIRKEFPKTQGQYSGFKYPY

P2X purinoceptor 7 [6] = biological target: T3, P2X purinoceptor 7 (Mus musculus, UniProt Q9Z1M0); experiment: Antagonist activity at mouse P2X7 receptor by calcium flux assay
T3 sequence (Q9Z1M0 whole entry): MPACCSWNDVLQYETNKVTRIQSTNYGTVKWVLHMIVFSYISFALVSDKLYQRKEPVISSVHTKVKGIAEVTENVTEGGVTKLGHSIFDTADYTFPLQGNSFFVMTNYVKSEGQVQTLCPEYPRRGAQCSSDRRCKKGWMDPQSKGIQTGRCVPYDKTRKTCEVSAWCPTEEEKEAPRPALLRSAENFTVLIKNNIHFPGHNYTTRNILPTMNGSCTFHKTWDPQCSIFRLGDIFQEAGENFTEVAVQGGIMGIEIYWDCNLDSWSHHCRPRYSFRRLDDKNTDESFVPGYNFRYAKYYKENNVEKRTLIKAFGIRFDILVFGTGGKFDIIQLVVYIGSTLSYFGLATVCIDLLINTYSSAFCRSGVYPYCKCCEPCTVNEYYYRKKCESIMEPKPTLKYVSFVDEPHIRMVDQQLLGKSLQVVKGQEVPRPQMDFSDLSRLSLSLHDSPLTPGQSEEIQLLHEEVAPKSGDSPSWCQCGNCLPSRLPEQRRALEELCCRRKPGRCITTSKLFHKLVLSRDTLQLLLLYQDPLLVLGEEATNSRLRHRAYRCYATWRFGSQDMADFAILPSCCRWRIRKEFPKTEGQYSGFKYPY

P2X purinoceptor 7 [7] = biological target: T1, P2X purinoceptor 7; experiment: Antagonist activity at P2X7 receptor in human THP-1 cells assessed as reduction in ATP induced IL-1 beta release; format: cell-based
P2X purinoceptor 7 [8] = biological target: T3, P2X purinoceptor 7; experiment: Antagonist activity at P2X7 receptor in mouse Peritoneal macrophage cells assessed as reduction in ATP induced IL-1 beta release; format: cell-based
[9] = biological target: T4, P2X purinoceptor 7 (Mus musculus) (UniProt Q9Z1M0); experiment: Antagonist activity at P2X7 receptor in mouse Peritoneal macrophage cells assessed as ATP induced dye uptake at 10 uM relative to control; format: cell-based
T4 sequence (whole entry): T3 sequence (Q9Z1M0 whole entry)

P2X purinoceptor 7 [10] = biological target: T1, P2X purinoceptor 7; experiment: Antagonist activity at human P2X7 receptor expressed in 1321N1 cells by FLIPR assay; format: cell-based
P2X purinoceptor 7 [11] = biological target: T1, P2X purinoceptor 7; experiment: Inhibition of P2X7 (unknown origin) assessed as reduction in IL-1 beta release
P2X purinoceptor 7 [12] = biological target: T1, P2X purinoceptor 7; experiment: Inhibition of P2X7 in human THP-1cells assessed as reduction in YO-PRO-1 iodide dye uptake measured after 24 hrs by fluorescence based assay; format: cell-based

COCCn1cc(C(=O)NCc2ccco2)c2c(Cl)cccc21
IC50 (P2X purinoceptor 7 [1]): > 1000 nM

CC1CCCC(O)(CNC(=O)c2cn(C3COC3)c3cccc(Cl)c23)C1 (stereo not given)
IC50 (P2X purinoceptor 7 [1]): < 10 nM

O=C(NCc1ccc(F)cc1Cl)[C@]1(F)CC[C@H](OCCO)c2ncccc21
IC50 (P2X purinoceptor 7 [2]): < 50 nM

COc1ccc(Nc2nc(=O)c3onc(C)c3n2Cc2ccc(F)c(F)c2)c(C)c1
IC50 (P2X purinoceptor 7 [3]): < 10 nM

Cc1noc(C)c1Cc1noc(=O)n1CC1CCC(F)(F)CC1
IC50 (P2X purinoceptor 7 [4]): < 200 nM
IC50 (P2X purinoceptor 7 [5]): 200 nM
IC50 (P2X purinoceptor 7 [6]): 1000 nM

O=c1onc(Cc2c(F)cccc2Cl)n1CC1CCC(F)(F)CC1
IC50 (P2X purinoceptor 7 [4]): < 200 nM
IC50 (P2X purinoceptor 7 [5]): < 200 nM
IC50 (P2X purinoceptor 7 [6]): < 200 nM

CC1=C(C(c2ccc([N+](=O)[O-])cc2)n2cc(COCc3ccco3)nn2)C(=O)c2ccccc2C1=O (stereo not given)
IC50 (P2X purinoceptor 7 [7]): 183000 nM
IC50 (P2X purinoceptor 7 [8]): 187000 nM
inhibition ([9]; filed as antagonist): 60%

CC1=C(Cn2cc(COCc3ccco3)nn2)C(=O)c2ccccc2C1=O
IC50 (P2X purinoceptor 7 [7]): 184000 nM
IC50 (P2X purinoceptor 7 [8]): 160000 nM
inhibition ([9]; filed as antagonist): 60%

C[C@H]1CCC[C@@](O)(CNC(=O)c2cn(CCC(F)F)c3cccc(Cl)c23)C1
IC50 (P2X purinoceptor 7 [1]): < 10 nM

COCCn1cc(C(=O)NCc2ccc3c(c2)OCO3)c2c(Cl)cccc21
IC50 (P2X purinoceptor 7 [1]): > 1000 nM

Cc1ncccc1Cc1noc(=O)n1CC1CCC(F)(F)CC1
IC50 (P2X purinoceptor 7 [4]): 200 nM
IC50 (P2X purinoceptor 7 [5]): 1000 nM
IC50 (P2X purinoceptor 7 [6]): 1000 nM

CC1=C(C(c2ccccc2)n2cc(COCc3ccco3)nn2)C(=O)c2ccccc2C1=O (stereo not given)
IC50 (P2X purinoceptor 7 [7]): 140000 nM
IC50 (P2X purinoceptor 7 [8]): 145000 nM
inhibition ([9]; filed as antagonist): 60%

Cc1c(Cl)cccc1Nc1nc(=O)cc2n1C(c1ccccc1)CC2 (stereo not given)
IC50 (P2X purinoceptor 7 [3]): < 10 nM

O=c1onc(CN2CCC(F)(F)CC2)n1CC1CCC(F)(F)CC1
IC50 (P2X purinoceptor 7 [4]): > 10000 nM
IC50 (P2X purinoceptor 7 [5]): > 10000 nM
IC50 (P2X purinoceptor 7 [6]): > 10000 nM

CN1C(=O)N=C(NCc2ccccc2)N2C1=NCC2c1cc(F)c(F)c(F)c1 (stereo not given)
IC50 (P2X purinoceptor 7 [3]): < 10 nM

O=C1CCC(C(=O)NCc2cccc(C(F)(F)F)c2Cl)c2cccnc21 (stereo not given)
IC50 (P2X purinoceptor 7 [2]): < 50 nM

COc1cc(Nc2nc(=O)c(F)cn2Cc2cc(F)c(F)c(F)c2)c(C)c(F)c1OC
IC50 (P2X purinoceptor 7 [10]): < 10 nM

CC1=C(C(c2ccc(C)cc2)n2cc(COCc3ccco3)nn2)C(=O)c2ccccc2C1=O (stereo not given)
inhibition [9]: < 60%

O=C(NCc1ccc(Cl)cc1Cl)[C@@]1(F)CC[C@](O)(CN2CC(O)C2)c2ncccc21
IC50 (P2X purinoceptor 7 [2]): < 50 nM

C[C@H](CO)n1ccc2c(NC(=O)CC34CC5CC(CC(C5)C3)C4)cccc2c1=O
IC50 (P2X purinoceptor 7 [11]): 1 nM
IC50 (P2X purinoceptor 7 [12]): 520 nM

COCCn1cc(C(=O)NCc2nc3ccccc3s2)c2c(Cl)cccc21
IC50 (P2X purinoceptor 7 [1]): > 1000 nM

CC1CC(F)(F)CCN1Cn1c(Cc2c(F)cccc2Cl)noc1=O (stereo not given)
IC50 (P2X purinoceptor 7 [4]): < 200 nM
IC50 (P2X purinoceptor 7 [5]): < 200 nM
IC50 (P2X purinoceptor 7 [6]): < 200 nM

Cc1nc2cc(C)c(Nc3nc(=O)c4[nH]cnc4n3Cc3ccc(F)cc3)cc2s1
IC50 (P2X purinoceptor 7 [3]): 11 nM

Cc1ccc(OCCO)cc1Nc1nc(=O)cnn1Cc1cc(F)c(F)c(F)c1
IC50 (P2X purinoceptor 7 [10]): 9.7 nM

Cc1c(F)cc(CO)cc1Nc1nc(=O)cnn1Cc1cc(F)c(F)c(F)c1
IC50 (P2X purinoceptor 7 [10]): 3 nM

CS(=O)(=O)C[C@]1(O)CC[C@@](F)(C(=O)NCc2ccc(Cl)cc2Cl)c2cccnc21
IC50 (P2X purinoceptor 7 [2]): < 50 nM

O=c1onc(Cc2ccccc2Cl)n1CC1CCC(F)(F)CC1
IC50 (P2X purinoceptor 7 [4]): < 200 nM
IC50 (P2X purinoceptor 7 [5]): < 200 nM
IC50 (P2X purinoceptor 7 [6]): 200 nM

CCN1C(=O)N=C(Nc2cc(C)c(C)cc2C)N2C1=NCC2c1ccccc1 (stereo not given)
IC50 (P2X purinoceptor 7 [3]): < 10 nM

Cc1c(Cl)cccc1Nc1nc(=O)cc2n1C(c1ccccc1)COC2 (stereo not given)
IC50 (P2X purinoceptor 7 [3]): 1.8 nM

COc1nc(C)c(Nc2nc(=O)c3[nH]cnc3n2Cc2ccc(F)c(F)c2)cc1C
IC50 (P2X purinoceptor 7 [3]): < 10 nM

CC1=C(C(c2ccc(Br)cc2)n2cc(COCc3ccco3)nn2)C(=O)c2ccccc2C1=O (stereo not given)
inhibition [9]: < 60%
